In experiment [1] the target is T1, recombinant human JAK1 kinase domain protein (Residues 854-1154) (Homo sapiens, UniProt P23458).
T1 construct: human JAK1 kinase domain protein (Residues 854-1154); purchased Proteros Biostructures GmbH (Martinsried, Germany); host or cells: insect cells
Kind of experiment: JAK1 biochemical assay (LabChip mobility shift, Ki). To be noted: read-out: Biochem JAK1 Ki.

Experiment [2] relates to EPO-stimulated P-STAT5 in TF-1 human erythroleukemia cells. Kind of experiment: P-STAT5 TF-1 + EPO assay (JAK2 pathway). To be noted: Homo sapiens, TF-1, TF-1 cells, EPO stimulation; read-out: Cellular JAK2 PSTAT5 TF-1 + EPO. The experiment is classed as cell-based. How it is done:
(§1) TF-1 human erythroleukemia cells (ATCC′; Manassas, VA; Catalog No. CRL-2003™) were grown in Roswell Park Memorial Institute (RPMI) medium supplemented with 10% heat-inactivated fetal bovine serum (FBS), 2 ng/mL granulocyte-macrophage colony-stimulating factor, 1× non-essential amino acids (NEAA), and 1 mM sodium pyruvate. The day before the assay, the cultures were transferred to Opti-MEM™, 1×NEAA, 1 mM sodium pyruvate, and 0.5% charcoal-stripped FBS (starve medium). Inhibitor stock solutions (5 mM in DMSO) were serially diluted 1:2 in DMSO to generate a 10-point concentration titration (at 500× test concentration), which was further diluted by a 50-fold dilution in Assay Medium (RPMI containing 1×NEAA and 1 mM sodium pyruvate) to generate a 10× concentration titration (in 2% DMSO). The cells (300,000 cells/well in 35 μL of Assay Medium) were seeded in 384-well Greiner plates. Diluted inhibitor at 10× concentration (5 μL) was added to the cells and the plates were incubated for 30 minutes at 37° C. in a humidified incubator. Cells were stimulated with the human recombinant cytokine at the respective EC90 concentrations, as previously determined for each individual lot. For the phosphorylated signal transducer and activator of transcription 6 (P-STAT6) TF-1+Interleukin-13 (IL-13) assay, 10 μL of 250 ng/mL IL-13 (R&D Systems; Minneapolis, MN) was added to the cells, which were then incubated for 10 minutes at 37° C. For the P-STAT5 TF-1+Erythropoietin (EPO) assay, 10 μL of 110 IU/mL EPO (Gibco Life Technologies, Catalog No. PHC2054) was added to the cells, which were then incubated for […] at 37° C. For both assays, the incubation was followed by addition to the cells of 5 μL of ice-cold 10× cell lysis buffer (Cell Signaling Technologies; Danvers, MA; Catalog No. 9803S) containing 1 mM phenylmethylsulfonyl fluoride (PMSF). Assay plates were frozen at −80° C. for a minimum of 1 hour. In the IL-13 assay, P-STAT6 was measured by coating goat anti-rabbit (GAR) plates (Meso Scale Discovery [MSD]; Rockville, MD; Catalog No. MSD L21RA-1) with rabbit anti-human total STAT6 antibody (Cell Signaling Technologies; Catalog No. 9362S), incubating the cell lysates in the coated plates overnight at 4° C., and then detecting with mouse anti-P-STAT6 (Tyr641) Clone 16E12 antibody (MilliporeSigma; Burlington, MA; Catalog No. 05-590, custom labeled by MSD with SULFO-tag) using standard MSD plate processing, washing, and detection protocols. In the EPO assay, P-STAT5 was detected using the phospho-STAT5a,b Whole Cell Lysate Kit (MSD; Catalog No. K150IGD-1). The electrochemiluminescence (ECL) signal of wells was read on the MESO SECTOR 5600 (MSD) reader.
(§2) Data analysis was performed by subtracting the negative control (cytokine stimulated and 20 μM control inhibitor-treated cells) mean ECL value from the ECL value of all wells, determining percent of control for test compound well ECL values relative to the positive control (cytokine stimulated and DMSO-treated cells) mean ECL value, and determining the IC50 for test compounds with a four-parameter logistic fit model as shown in Equation 4.

Experiment [3] concerns IL-13-stimulated P-STAT6 in TF-1 human erythroleukemia cells. Kind of experiment: P-STAT6 TF-1 + IL-13 assay (JAK1 pathway). The experiment is classed as cell-based. To be noted: Homo sapiens, TF-1, TF-1 cells, IL13 stimulation; read-out: Cellular JAK1 PSTAT6 TF-1 + IL13. The protocol:
as §1, §2

In experiment [4] the target is Recombinant human JAK2 kinase domain protein (Residues 812-1132) (Homo sapiens, UniProt O60674). Kind of experiment: JAK2 biochemical assay (LabChip mobility shift, Ki). To be noted: Biochem JAK2 Ki.
Sequence of Recombinant human JAK2 kinase domain protein (Residues 812-1132) (O60674 812-1132): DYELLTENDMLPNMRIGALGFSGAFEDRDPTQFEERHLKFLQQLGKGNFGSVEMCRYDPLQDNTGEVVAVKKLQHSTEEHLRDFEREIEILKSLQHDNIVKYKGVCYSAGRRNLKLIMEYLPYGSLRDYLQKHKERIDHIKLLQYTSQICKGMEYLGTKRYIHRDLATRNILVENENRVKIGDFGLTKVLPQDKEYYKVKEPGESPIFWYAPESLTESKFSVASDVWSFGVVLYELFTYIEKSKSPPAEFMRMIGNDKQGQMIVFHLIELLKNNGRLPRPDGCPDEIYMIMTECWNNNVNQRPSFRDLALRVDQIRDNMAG
Experimental: The in vitro biochemical assays quantify JAK-catalyzed phosphorylation of a synthetic peptide, as detected using a LabChip® EZ Reader II microfluidic mobility shift instrument (PerkinElmer; Waltham, MA). […] Y-1B is fluorescently labeled on the N-terminus with 5-FAM (5-carboxyfluorescein) and contains a single tyrosine residue (Y) that can be phosphorylated by JAK activity. The substrate peptide stock is prepared in DMSO at 5 mM. […] In each titration experiment, test compound was tested in duplicate at each of the twelve concentrations. Blank reactions contained ATP, peptide, and DMSO, but no JAK or test compound, whereas uninhibited control reactions contained ATP, peptide, JAK, and DMSO, but no test compound.
Peptide plus ATP mixture (24 μL) was added to 1 μL of test compound in DMSO (or DMSO alone). The reactions were initiated by adding 25 μL of JAK enzyme to the inhibitor/peptide/ATP mixture before thoroughly mixing the resultant solution. Reactions were incubated at room temperature (22° C.-23° C.) in a final volume of 50 μL per well in 384-well plates. After a 30-minute incubation, the reactions were stopped by adding 25 μL of 150 mM ethylenediaminetetraacetic acid in 100 mM HEPES buffer (pH 7.2) containing 0.015% Brij 35 to each well.
In each reaction, the residual Y-1B substrate and the phospho-peptide product generated were separated using the EZ Reader II instrument. Electrophoretic separation of molecules of product from molecules of substrate was achieved using downstream and upstream voltages of −500 and −2600 V, respectively, at an operating pressure of −1.3 psi.
The extent (or percent) of conversion of substrate to product was calculated from the corresponding peak heights in the electropherogram using HTS Well Analyzer software, Version 5.2 (PerkinElmer), and the following equation (Equation 1): conversion=[P÷(S+P)]×100 Equation 1% where S and P represent the peak heights of the substrate and product, respectively. After any baseline signal from blank wells containing no JAK was subtracted from the signal of all test wells, the % conversion data were converted to fractional activity as shown in Equation 2, where vi and vo are the % conversion in the presence and absence of test compound, respectively.
For experiment [5], the system named is IL-13-stimulated STAT6 phosphorylation in human lung bronchial epithelial BEAS-2B cell line. Kind of experiment: P-STAT6 BEAS-2B + IL-13 cell assay. It is filed as cell-based. To be noted: Homo sapiens, BEAS-2B, BEAS2B cells, IL13 stimulation; read-out: Cellular JAK1 PSTAT6 BEAS2B + IL13. The procedure, abridged: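 BEAS-2B cells grown 48 h at 37 °C, pre-treated 1 h with compound (10-point 1:2 dilution curve), then stimulated 15 min with human recombinant IL-13 (250 ng/mL stock). Lysate P-STAT6 (Tyr641) read by MSD sandwich ELISA with total-STAT6 capture; IC50 from four-parameter logistic fit of control-normalised data.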

T1 sequence (P23458 854-1154): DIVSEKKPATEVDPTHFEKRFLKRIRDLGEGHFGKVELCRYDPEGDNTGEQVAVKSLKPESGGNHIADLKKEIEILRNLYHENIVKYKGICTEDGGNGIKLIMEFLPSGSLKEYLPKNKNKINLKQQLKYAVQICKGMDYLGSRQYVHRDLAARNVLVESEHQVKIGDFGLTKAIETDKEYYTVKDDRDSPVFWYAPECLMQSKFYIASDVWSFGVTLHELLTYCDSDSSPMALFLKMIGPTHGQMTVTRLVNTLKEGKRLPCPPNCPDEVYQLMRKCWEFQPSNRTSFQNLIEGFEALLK

As for `CC(C)N1CC(O)(Cn2cc(Oc3ccc(OC(F)F)c(-c4nn(C)cc4NC(=O)c4cnn5cccnc45)c3)cn2)C1` [Example 201, N-[3-[2-(difluoromethoxy)-5-[1-[(3-hydroxy-1-isopropyl-azetidin-3-yl)methyl]pyrazol-4-yl]oxy-phenyl]-1-methyl-pyrazol-4-yl]pyrazolo[1,5-a]pyrimidine-3-carboxamide], the inhibitory constant (Ki) worked out at 0.46 nM in experiment [1] and 0.34 nM in experiment [4]. The IC50 in experiment [2] was 21 nM; in experiment [3] it was 14 nM; in experiment [5], 34 nM.

The values above are taken from patent publication US12528812B2 (Genentech, Inc., priority 2020, dated 2026).
